Data on 3 molecules can be found in US20220265845A1, “AMINOTHIOLESTER COMPOUNDS AND USES THEREOF” (ADVANCED BIODESIGN, priority 2019, published 2022).

Assay in all cases: Kinetic parameters and inhibition type from Kobs versus inhibitor concentration plots
Holding throughout (type): biochemical

The target of experiment [1] is T1, Human recombinant ALDH1A1 (Homo sapiens, UniProt P00352).
T1 construct: purchased Creative BioMart, NY, USA
T1 sequence (P00352 1-501): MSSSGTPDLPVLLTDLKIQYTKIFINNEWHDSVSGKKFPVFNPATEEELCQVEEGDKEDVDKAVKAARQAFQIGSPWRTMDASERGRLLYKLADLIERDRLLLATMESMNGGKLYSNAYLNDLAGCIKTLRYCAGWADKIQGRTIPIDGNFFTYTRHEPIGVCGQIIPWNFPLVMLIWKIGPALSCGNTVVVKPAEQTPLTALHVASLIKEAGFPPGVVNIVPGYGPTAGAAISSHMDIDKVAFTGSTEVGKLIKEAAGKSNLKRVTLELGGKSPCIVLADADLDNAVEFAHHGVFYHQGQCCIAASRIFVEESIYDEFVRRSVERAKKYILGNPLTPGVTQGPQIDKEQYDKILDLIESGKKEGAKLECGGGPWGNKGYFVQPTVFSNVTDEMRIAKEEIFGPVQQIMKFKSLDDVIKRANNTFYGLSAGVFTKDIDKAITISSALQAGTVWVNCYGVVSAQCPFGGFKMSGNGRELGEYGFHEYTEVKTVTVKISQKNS
Particulars: for kinact/KI: from Kobs versus [I] plots. As to the method: (§1) The kinetic data are expressed as the mean±standard error from three independent determination. Kinact/Ki was determined from Kobs versus concentration of the inhibitor [I] plots. […] The Kobs were obtained from negative exponential fit using non-linear regression program GraFit 5.0 (Erithacus software).
(§2) To determine the inhibition mechanisms of the tested compounds for each isoenzyme, the corresponding Kobs were calculated as mentioned above, plotting product concentration vs time incubation of the enzymes with the test compounds at 300 μM, 200 μM, 100 μM, 50 μM, 20 μM and 10 μM. The kobs were obtained for each concentration of inhibitor tested, from the negative exponential fit using non-linear regression program GraFit 5.0 (Erithacus software). Finally, the kinetic parameter of kinact/KI was determined from the plot of kobs versus the corresponding concentration of inhibitor. The slope of the linear fit of data indicated the rate constant in μM^−1·min^−1.

For experiment [2], the target named is T2, Human recombinant ALDH1A2 (Homo sapiens, UniProt O94788).
T2 construct: purchased Creative BioMart, NY, USA
T2 sequence (O94788 1-518): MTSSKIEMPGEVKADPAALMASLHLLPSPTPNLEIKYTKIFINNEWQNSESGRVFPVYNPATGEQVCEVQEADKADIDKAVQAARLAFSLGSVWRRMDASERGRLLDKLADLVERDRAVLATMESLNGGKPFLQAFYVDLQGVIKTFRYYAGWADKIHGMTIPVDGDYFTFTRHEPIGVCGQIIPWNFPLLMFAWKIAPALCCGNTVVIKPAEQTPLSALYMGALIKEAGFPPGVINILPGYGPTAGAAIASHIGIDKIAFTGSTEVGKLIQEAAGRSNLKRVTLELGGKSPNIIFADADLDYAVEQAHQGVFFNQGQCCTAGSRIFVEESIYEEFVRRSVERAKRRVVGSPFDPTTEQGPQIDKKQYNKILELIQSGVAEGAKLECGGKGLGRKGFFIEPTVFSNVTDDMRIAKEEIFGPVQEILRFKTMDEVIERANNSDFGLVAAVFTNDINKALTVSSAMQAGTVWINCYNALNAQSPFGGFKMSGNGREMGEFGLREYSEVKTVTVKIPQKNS
Conditions: from Kobs versus [I] plots. As to the method:
as §1, §2

Experiment [3] has as its target T3, Human recombinant ALDH1A3 (Homo sapiens, UniProt P47895).
T3 construct: purchased Creative BioMart, NY, USA
T3 sequence (P47895 1-512): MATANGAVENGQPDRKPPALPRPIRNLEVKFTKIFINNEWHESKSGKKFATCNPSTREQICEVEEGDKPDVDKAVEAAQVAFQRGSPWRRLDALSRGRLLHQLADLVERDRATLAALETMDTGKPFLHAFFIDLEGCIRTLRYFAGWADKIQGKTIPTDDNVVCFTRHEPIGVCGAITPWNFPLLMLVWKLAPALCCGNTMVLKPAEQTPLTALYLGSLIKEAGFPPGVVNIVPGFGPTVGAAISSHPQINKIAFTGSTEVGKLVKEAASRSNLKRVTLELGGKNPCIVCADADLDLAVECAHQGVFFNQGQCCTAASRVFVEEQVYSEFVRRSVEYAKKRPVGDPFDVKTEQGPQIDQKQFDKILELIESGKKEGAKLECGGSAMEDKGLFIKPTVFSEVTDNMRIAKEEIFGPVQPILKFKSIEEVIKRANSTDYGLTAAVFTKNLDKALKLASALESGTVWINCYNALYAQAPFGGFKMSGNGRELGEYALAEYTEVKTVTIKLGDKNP
Particulars: for kinact/KI: from Kobs versus [I] plots; for Specificity of interaction with ALDH1A3: compared with DIMATE. As to the method: as §1, §2

The target in the next experiment is T4, Human recombinant ALDH2 (Homo sapiens, UniProt P05091).
T4 construct: purchased Creative BioMart, NY, USA
T4 sequence (P05091 18-517): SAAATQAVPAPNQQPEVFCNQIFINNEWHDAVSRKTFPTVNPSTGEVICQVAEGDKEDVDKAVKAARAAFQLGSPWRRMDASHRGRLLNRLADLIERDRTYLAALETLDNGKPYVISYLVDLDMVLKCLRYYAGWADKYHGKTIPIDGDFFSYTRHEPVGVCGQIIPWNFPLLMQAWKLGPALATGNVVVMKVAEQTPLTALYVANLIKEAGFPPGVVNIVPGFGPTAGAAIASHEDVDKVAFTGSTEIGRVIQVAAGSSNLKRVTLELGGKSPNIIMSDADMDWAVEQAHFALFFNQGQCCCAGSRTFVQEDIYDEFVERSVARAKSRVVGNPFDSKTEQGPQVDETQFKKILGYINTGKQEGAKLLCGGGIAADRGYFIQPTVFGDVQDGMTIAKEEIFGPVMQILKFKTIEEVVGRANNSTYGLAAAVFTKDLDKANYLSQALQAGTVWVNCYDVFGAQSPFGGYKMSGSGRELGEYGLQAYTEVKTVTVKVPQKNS
Particulars: from Kobs versus [I] plots. Here is the method: as §1, §2

In experiment [4] the target is T5, Human recombinant ALDH3A1 (Homo sapiens, UniProt P30838).
T5 sequence (P30838 1-453): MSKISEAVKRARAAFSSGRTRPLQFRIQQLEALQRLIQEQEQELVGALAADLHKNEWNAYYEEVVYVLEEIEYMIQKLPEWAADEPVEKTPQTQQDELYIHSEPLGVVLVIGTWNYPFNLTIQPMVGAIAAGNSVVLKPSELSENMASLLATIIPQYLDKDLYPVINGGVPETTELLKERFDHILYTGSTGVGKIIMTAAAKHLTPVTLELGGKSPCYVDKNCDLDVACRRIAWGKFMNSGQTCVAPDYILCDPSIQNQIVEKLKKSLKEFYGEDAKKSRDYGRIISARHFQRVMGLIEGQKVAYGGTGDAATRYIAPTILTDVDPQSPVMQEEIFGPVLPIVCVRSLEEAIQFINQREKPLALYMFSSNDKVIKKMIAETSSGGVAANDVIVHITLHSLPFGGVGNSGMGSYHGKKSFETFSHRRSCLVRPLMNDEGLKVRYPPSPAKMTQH
Conditions: for Ki: printed in the Kinact/Ki column in place of Kinact/Ki. As to the method:
as §1, §2

Regarding `CSC(=O)C#CC(C)(C)N(C)C` [DIMATE, S-methyl 4-(dimethylamino)-4-methylpent-2-ynethioate, reference compound], in experiment [1], the “ALDH1A1 Inhibition Type” value was “specific”. In addition, the kinact/KI in experiment [1] is 15 M⁻¹ s⁻¹; in experiment [2], 85 M⁻¹ s⁻¹; in experiment [3], 28.3 M⁻¹ s⁻¹; on Human recombinant ALDH2, 7.08 M⁻¹ s⁻¹. Also, the “ALDH1A3 Inhibition Type” value in experiment [3] is recorded as “non-specific affinity label”. Also, in experiment [4], the Ki turned out to be 253 µM.

For `CSC(=O)C#CC(C)(C)N(C)CCOCc1ccccc1` [Example 3, S-methyl 4-[2-benzyloxyethyl(methyl)amino]-4-methyl-pent-2-ynethioate], the kinact/KI in experiment [1] is 8.33 M⁻¹ s⁻¹; in experiment [2], 1670 M⁻¹ s⁻¹; in experiment [3], 642 M⁻¹ s⁻¹; on Human recombinant ALDH2 it was 9 M⁻¹ s⁻¹. Moreover, in experiment [3], the “ALDH1A3 Inhibition Type” value was “specific”. In experiment [3], the “Specificity of interaction with ALDH1A3” value is “higher specificity”. In addition, the Ki in experiment [4] was found to be 233 µM.

For the molecule `CSC(=O)C#CC(C)(C)N(C)CCOCc1ccc(C)c(C)c1` [Example 5, S-methyl 4-[2-[(3,4-dimethylphenyl)methoxy]ethyl-methyl-amino]-4-methyl-pent-2-ynethioate], the kinact/KI in experiment [1] is 61.7 M⁻¹ s⁻¹; in experiment [2], 352 M⁻¹ s⁻¹; in experiment [3] it was 197 M⁻¹ s⁻¹; at Human recombinant ALDH2, 40.8 M⁻¹ s⁻¹; in experiment [4] (from Kobs versus [I] plots), 5 M⁻¹ s⁻¹. Also, in experiment [3], the “ALDH1A3 Inhibition Type” value is “specific”. The “Specificity of interaction with ALDH1A3” value in experiment [3] is on record as “higher specificity”.
